Experimental data as given in ChEMBL document CHEMBL3817764, “Pyrimidine-based antimalarials: design strategies and antiplasmodial effects” (Medchemcomm, 2016).

Tested on: Plasmodium falciparum
Experiment: Antiplasmodial activity against chloroquine-sensitive Plasmodium falciparum D6 by NBT assay
Type: functional, organism-based
Settings: not given

SMILES | IC50
Clc1ccc2c(NCCCNc3nccc(N4CCOCC4)n3)ccnc2c1 | 6 nM
CCN1CCN(c2ccnc(NCCCNc3ccnc4cc(Cl)ccc34)n2)CC1 | 6 nM
Cc1cc(N2CCN(C)CC2)nc(NCCNc2ccnc3cc(Cl)ccc23)n1 | 6 nM
Clc1ccc2c(NCCNc3nccc(N4CCCCC4)n3)ccnc2c1 | 6 nM
Cc1cc(N2CCN(C)CC2)nc(NCCCCCCNc2ccnc3cc(Cl)ccc23)n1 | 6 nM
Clc1ccc2c(NCCNc3nccc(Cl)n3)ccnc2c1 | 6 nM
Cc1cc(N2CCCCC2)nc(NCCCCCCNc2ccnc3cc(Cl)ccc23)n1 | 6 nM
Cc1cc(N2CCOCC2)nc(NCCCNc2ccnc3cc(Cl)ccc23)n1 | 6 nM
Cc1cc(N2CCOCC2)nc(NCCNc2ccnc3cc(Cl)ccc23)n1 | 6 nM
CCN1CCN(c2ccnc(NCCNc3ccnc4cc(Cl)ccc34)n2)CC1 | 6 nM
Clc1ccc2c(NCCNc3nccc(N4CCOCC4)n3)ccnc2c1 | 6 nM
Clc1ccc2c(NCCCNc3nc(Cl)cc(Cl)n3)ccnc2c1 | 6 nM
Cc1cc(N2CCCCC2)nc(NCCCNc2ccnc3cc(Cl)ccc23)n1 | 6 nM
Cc1cc(N2CCCCC2)nc(NCCCCNc2ccnc3cc(Cl)ccc23)n1 | 6 nM
CCN1CCN(c2cc(C)nc(NCCCCNc3ccnc4cc(Cl)ccc34)n2)CC1 | 6 nM
Cc1cc(N2CCCCC2)nc(NCCNc2ccnc3cc(Cl)ccc23)n1 | 6 nM
Cc1cc(N2CCOCC2)nc(NCCCCNc2ccnc3cc(Cl)ccc23)n1 | 6 nM
Clc1ccc2c(NCCNc3nc(Cl)cc(Cl)n3)ccnc2c1 | 6 nM
CN1CCN(c2ccnc(NCCNc3ccnc4cc(Cl)ccc34)n2)CC1 | 6 nM
Cc1cc(N2CCN(C)CC2)nc(NCCCCNc2ccnc3cc(Cl)ccc23)n1 | 6 nM
CCN1CCN(c2cc(C)nc(NCCCNc3ccnc4cc(Cl)ccc34)n2)CC1 | 6 nM
CN1CCN(c2ccnc(NCCCNc3ccnc4cc(Cl)ccc34)n2)CC1 | 6 nM
Cc1cc(N2CCN(C)CC2)nc(NCCCNc2ccnc3cc(Cl)ccc23)n1 | 6 nM
Cc1cc(N2CCOCC2)nc(NCCCCCCNc2ccnc3cc(Cl)ccc23)n1 | 6 nM

Tested on: Plasmodium falciparum
Experiment: Antiplasmodial activity against chloroquine-resistant Plasmodium falciparum W2 by NBT assay
Type: functional, organism-based
Settings: not given

SMILES | IC50
Clc1ccc2c(NCCCNc3nccc(N4CCOCC4)n3)ccnc2c1 | 16 nM
CCN1CCN(c2ccnc(NCCCNc3ccnc4cc(Cl)ccc34)n2)CC1 | 16 nM
Cc1cc(N2CCN(C)CC2)nc(NCCNc2ccnc3cc(Cl)ccc23)n1 | 16 nM
Clc1ccc2c(NCCNc3nccc(N4CCCCC4)n3)ccnc2c1 | 16 nM
Cc1cc(N2CCN(C)CC2)nc(NCCCCCCNc2ccnc3cc(Cl)ccc23)n1 | 16 nM
Clc1ccc2c(NCCNc3nccc(Cl)n3)ccnc2c1 | 16 nM
Cc1cc(N2CCCCC2)nc(NCCCCCCNc2ccnc3cc(Cl)ccc23)n1 | 16 nM
Cc1cc(N2CCOCC2)nc(NCCCNc2ccnc3cc(Cl)ccc23)n1 | 16 nM
Cc1cc(N2CCOCC2)nc(NCCNc2ccnc3cc(Cl)ccc23)n1 | 16 nM
CCN1CCN(c2ccnc(NCCNc3ccnc4cc(Cl)ccc34)n2)CC1 | 16 nM
Clc1ccc2c(NCCNc3nccc(N4CCOCC4)n3)ccnc2c1 | 16 nM
Clc1ccc2c(NCCCNc3nc(Cl)cc(Cl)n3)ccnc2c1 | 16 nM
Cc1cc(N2CCCCC2)nc(NCCCNc2ccnc3cc(Cl)ccc23)n1 | 16 nM
Cc1cc(N2CCCCC2)nc(NCCCCNc2ccnc3cc(Cl)ccc23)n1 | 16 nM
CCN1CCN(c2cc(C)nc(NCCCCNc3ccnc4cc(Cl)ccc34)n2)CC1 | 16 nM
Cc1cc(N2CCCCC2)nc(NCCNc2ccnc3cc(Cl)ccc23)n1 | 16 nM
Cc1cc(N2CCOCC2)nc(NCCCCNc2ccnc3cc(Cl)ccc23)n1 | 16 nM
Clc1ccc2c(NCCNc3nc(Cl)cc(Cl)n3)ccnc2c1 | 16 nM
CN1CCN(c2ccnc(NCCNc3ccnc4cc(Cl)ccc34)n2)CC1 | 16 nM
Cc1cc(N2CCN(C)CC2)nc(NCCCCNc2ccnc3cc(Cl)ccc23)n1 | 16 nM
CCN1CCN(c2cc(C)nc(NCCCNc3ccnc4cc(Cl)ccc34)n2)CC1 | 16 nM
CN1CCN(c2ccnc(NCCCNc3ccnc4cc(Cl)ccc34)n2)CC1 | 16 nM
Cc1cc(N2CCN(C)CC2)nc(NCCCNc2ccnc3cc(Cl)ccc23)n1 | 16 nM
Cc1cc(N2CCOCC2)nc(NCCCCCCNc2ccnc3cc(Cl)ccc23)n1 | 16 nM

Tested on: Plasmodium falciparum
Experiment: Antimalarial activity against chloroquine-sensitive Plasmodium falciparum D6 assessed as plasmodial LDH activity
Type: functional, organism-based
Settings: not given

SMILES | IC50
OCCCCNc1nccc(NCCCNc2ccnc3cc(Cl)ccc23)n1 | 50 nM
COc1cc(Nc2nccc(N3CCN(c4ccnc5cc(Cl)ccc45)CC3)n2)cc(OC)c1 | 130 nM
Cc1cc(NCCCNc2ccnc3cc(Cl)ccc23)nc(NCCCO)n1 | 50 nM
Clc1ccc2c(NCCCNc3cc(Cl)nc(Cl)n3)ccnc2c1 | 50 nM
Clc1ccc2c(NCCNc3cc(Cl)nc(Cl)n3)ccnc2c1 | 50 nM
CCN1CCN(c2nccc(NCCCNc3ccnc4cc(Cl)ccc34)n2)CC1 | 50 nM
Cc1cc(NCCCCNc2ccnc3cc(Cl)ccc23)nc(NCCCCCCO)n1 | 50 nM
OCCNc1nccc(NCCCNc2ccnc3cc(Cl)ccc23)n1 | 50 nM
Clc1ccc(Nc2nccc(N3CCN(c4ccnc5cc(Cl)ccc45)CC3)n2)cc1 | 130 nM
Cc1cc(N2CCN(c3ccnc4cc(Cl)ccc34)CC2)nc(N2CCNCC2)n1 | 130 nM
OCCCCCCNc1nccc(NCCCNc2ccnc3cc(Cl)ccc23)n1 | 50 nM
Cc1cc(N2CCN(c3ccnc4cc(Cl)ccc34)CC2)nc(Nc2ccc(Br)cc2)n1 | 130 nM
Cc1cc(NCCCCNc2ccnc3cc(Cl)ccc23)nc(NCCO)n1 | 50 nM
Cc1cc(NCCNc2ccnc3cc(Cl)ccc23)nc(NCCCCCCO)n1 | 50 nM
Clc1ccc2c(NCCCNc3ccnc(Cl)n3)ccnc2c1 | 50 nM
CN1CCN(c2nc(Cl)cc(NCCCNc3ccnc4cc(Cl)ccc34)n2)CC1 | 50 nM
Clc1ccc2c(NCCNc3ccnc(Cl)n3)ccnc2c1 | 50 nM
OCCNc1nccc(NCCCCNc2ccnc3cc(Cl)ccc23)n1 | 50 nM
OCCNc1nccc(N2CCN(c3ccnc4cc(Cl)ccc34)CC2)n1 | 130 nM
Clc1ccc2c(NCCNc3cc(Cl)nc(N4CCCCC4)n3)ccnc2c1 | 50 nM
Cc1cc(NCCCNc2ccnc3cc(Cl)ccc23)nc(NCCCCCCO)n1 | 50 nM
Clc1ccc2c(N3CCN(c4ccnc(Nc5ccccc5)n4)CC3)ccnc2c1 | 130 nM

SMILES | IC50
Clc1ccc2c(NCCCNc3cc(Cl)nc(N4CCCCC4)n3)ccnc2c1 | 50 nM
OCCCNc1nccc(NCCCNc2ccnc3cc(Cl)ccc23)n1 | 50 nM
OCCCCNc1nccc(NCCCCNc2ccnc3cc(Cl)ccc23)n1 | 50 nM
OCCCCCNc1nccc(NCCNc2ccnc3cc(Cl)ccc23)n1 | 50 nM
COc1ccc(Nc2nc(C)cc(N3CCN(c4ccnc5cc(Cl)ccc45)CC3)n2)cc1 | 130 nM
OCCCCCCNc1nccc(NCCCCNc2ccnc3cc(Cl)ccc23)n1 | 50 nM
OCCCCCCNc1nccc(NCCNc2ccnc3cc(Cl)ccc23)n1 | 50 nM
Cc1cc(NCCCCNc2ccnc3cc(Cl)ccc23)nc(NCCCCCO)n1 | 50 nM
Cc1ccc(Nc2nccc(N3CCN(c4ccnc5cc(Cl)ccc45)CC3)n2)cc1 | 130 nM
Clc1ccc2c(NCCNc3cc(Cl)nc(N4CCOCC4)n3)ccnc2c1 | 50 nM
CN1CCN(c2nc(Cl)cc(NCCNc3ccnc4cc(Cl)ccc34)n2)CC1 | 50 nM
Cc1cc(NCCNc2ccnc3cc(Cl)ccc23)nc(NCCCCO)n1 | 50 nM
Clc1ccc2c(NCCCNc3cc(Cl)nc(N4CCOCC4)n3)ccnc2c1 | 50 nM
CCN1CCN(c2nc(Cl)cc(NCCNc3ccnc4cc(Cl)ccc34)n2)CC1 | 50 nM
CN1CCN(c2nccc(NCCNc3ccnc4cc(Cl)ccc34)n2)CC1 | 50 nM
COc1cc(Nc2nc(C)cc(N3CCN(c4ccnc5cc(Cl)ccc45)CC3)n2)cc(OC)c1 | 130 nM
Clc1ccc2c(N3CCN(c4ccnc(Nc5ccc(Br)cc5)n4)CC3)ccnc2c1 | 130 nM
Clc1ccc2c(NCCNc3ccnc(N4CCCCC4)n3)ccnc2c1 | 50 nM
Cc1cc(NCCNc2ccnc3cc(Cl)ccc23)nc(NCCCCCO)n1 | 50 nM
Cc1cc(N2CCN(c3ccnc4cc(Cl)ccc34)CC2)nc(NC2CCCCC2)n1 | 130 nM
Cc1cc(NCCCCNc2ccnc3cc(Cl)ccc23)nc(NCCCCO)n1 | 50 nM

Tested on: Plasmodium falciparum
Experiment: Antimalarial activity against chloroquine-resistant Plasmodium falciparum W2 assessed as plasmodial LDH activity
Type: functional, organism-based
Settings: not given

SMILES | IC50
OCCCCNc1nccc(NCCCNc2ccnc3cc(Cl)ccc23)n1 | 50 nM
COc1cc(Nc2nccc(N3CCN(c4ccnc5cc(Cl)ccc45)CC3)n2)cc(OC)c1 | 130 nM
Cc1cc(NCCCNc2ccnc3cc(Cl)ccc23)nc(NCCCO)n1 | 50 nM
Clc1ccc2c(NCCCNc3cc(Cl)nc(Cl)n3)ccnc2c1 | 50 nM
Clc1ccc2c(NCCNc3cc(Cl)nc(Cl)n3)ccnc2c1 | 50 nM
CCN1CCN(c2nccc(NCCCNc3ccnc4cc(Cl)ccc34)n2)CC1 | 50 nM
Cc1cc(NCCCCNc2ccnc3cc(Cl)ccc23)nc(NCCCCCCO)n1 | 50 nM
OCCNc1nccc(NCCCNc2ccnc3cc(Cl)ccc23)n1 | 50 nM
Clc1ccc(Nc2nccc(N3CCN(c4ccnc5cc(Cl)ccc45)CC3)n2)cc1 | 130 nM
Cc1cc(N2CCN(c3ccnc4cc(Cl)ccc34)CC2)nc(N2CCNCC2)n1 | 130 nM
OCCCCCCNc1nccc(NCCCNc2ccnc3cc(Cl)ccc23)n1 | 50 nM
Cc1cc(N2CCN(c3ccnc4cc(Cl)ccc34)CC2)nc(Nc2ccc(Br)cc2)n1 | 130 nM
Cc1cc(NCCCCNc2ccnc3cc(Cl)ccc23)nc(NCCO)n1 | 50 nM
Cc1cc(NCCNc2ccnc3cc(Cl)ccc23)nc(NCCCCCCO)n1 | 50 nM
Clc1ccc2c(NCCCNc3ccnc(Cl)n3)ccnc2c1 | 50 nM
CN1CCN(c2nc(Cl)cc(NCCCNc3ccnc4cc(Cl)ccc34)n2)CC1 | 50 nM
Clc1ccc2c(NCCNc3ccnc(Cl)n3)ccnc2c1 | 50 nM
OCCNc1nccc(NCCCCNc2ccnc3cc(Cl)ccc23)n1 | 50 nM
OCCNc1nccc(N2CCN(c3ccnc4cc(Cl)ccc34)CC2)n1 | 130 nM
Clc1ccc2c(NCCNc3cc(Cl)nc(N4CCCCC4)n3)ccnc2c1 | 50 nM
Cc1cc(NCCCNc2ccnc3cc(Cl)ccc23)nc(NCCCCCCO)n1 | 50 nM
Clc1ccc2c(N3CCN(c4ccnc(Nc5ccccc5)n4)CC3)ccnc2c1 | 130 nM

SMILES | IC50
Clc1ccc2c(NCCCNc3cc(Cl)nc(N4CCCCC4)n3)ccnc2c1 | 50 nM
OCCCNc1nccc(NCCCNc2ccnc3cc(Cl)ccc23)n1 | 50 nM
OCCCCNc1nccc(NCCCCNc2ccnc3cc(Cl)ccc23)n1 | 50 nM
OCCCCCNc1nccc(NCCNc2ccnc3cc(Cl)ccc23)n1 | 50 nM
COc1ccc(Nc2nc(C)cc(N3CCN(c4ccnc5cc(Cl)ccc45)CC3)n2)cc1 | 130 nM
OCCCCCCNc1nccc(NCCCCNc2ccnc3cc(Cl)ccc23)n1 | 50 nM
OCCCCCCNc1nccc(NCCNc2ccnc3cc(Cl)ccc23)n1 | 50 nM
Cc1cc(NCCCCNc2ccnc3cc(Cl)ccc23)nc(NCCCCCO)n1 | 50 nM
Cc1ccc(Nc2nccc(N3CCN(c4ccnc5cc(Cl)ccc45)CC3)n2)cc1 | 130 nM
Clc1ccc2c(NCCNc3cc(Cl)nc(N4CCOCC4)n3)ccnc2c1 | 50 nM
CN1CCN(c2nc(Cl)cc(NCCNc3ccnc4cc(Cl)ccc34)n2)CC1 | 50 nM
Cc1cc(NCCNc2ccnc3cc(Cl)ccc23)nc(NCCCCO)n1 | 50 nM
Clc1ccc2c(NCCCNc3cc(Cl)nc(N4CCOCC4)n3)ccnc2c1 | 50 nM
CCN1CCN(c2nc(Cl)cc(NCCNc3ccnc4cc(Cl)ccc34)n2)CC1 | 50 nM
CN1CCN(c2nccc(NCCNc3ccnc4cc(Cl)ccc34)n2)CC1 | 50 nM
COc1cc(Nc2nc(C)cc(N3CCN(c4ccnc5cc(Cl)ccc45)CC3)n2)cc(OC)c1 | 130 nM
Clc1ccc2c(N3CCN(c4ccnc(Nc5ccc(Br)cc5)n4)CC3)ccnc2c1 | 130 nM
Clc1ccc2c(NCCNc3ccnc(N4CCCCC4)n3)ccnc2c1 | 50 nM
Cc1cc(NCCNc2ccnc3cc(Cl)ccc23)nc(NCCCCCO)n1 | 50 nM
Cc1cc(N2CCN(c3ccnc4cc(Cl)ccc34)CC2)nc(NC2CCCCC2)n1 | 130 nM
Cc1cc(NCCCCNc2ccnc3cc(Cl)ccc23)nc(NCCCCO)n1 | 50 nM

Tested on: Calf thymus DNA
Experiment: Binding affinity to calf thymus DNA assessed as induction of hypochromic shift in intensity of quinoline absorption band at 331 nm at 7.1 uM
Type: nucleic-acid assay
Settings: Bos taurus

SMILES | Activity
Clc1ccc2c(NCCCNc3nccc(N4CCCCC4)n3)ccnc2c1 | 23%

Tested on: Calf thymus DNA
Experiment: Binding affinity to calf thymus DNA assessed as induction of red shift at 7.1 uM
Type: nucleic-acid assay
Settings: Bos taurus

SMILES | Activity
Clc1ccc2c(NCCCNc3nccc(N4CCCCC4)n3)ccnc2c1 | 14 nm

Tested on: Calf thymus DNA
Experiment: Binding affinity to calf thymus DNA assessed as melting temperature (reference value: 59.5 degC)
Type: nucleic-acid assay
Settings: Bos taurus

SMILES | Tm
Clc1ccc2c(NCCCNc3nccc(N4CCCCC4)n3)ccnc2c1 | 67.8 °C

Tested on: not listed separately
Experiment: Oral bioavailability in Sprague-Dawley rat plasma by LC/MS analysis
Type: ADME, organism-based
Settings: not given

SMILES | bioavailability
CC1(C)N=C(N)N=C(N)N1OCCCOc1cc(Cl)c(Cl)cc1Cl.Cl | 1%
Cc1nc(N)nc(N)c1OCCCOc1cc(Cl)c(Cl)cc1Cl | 83%
